# Results reported in patent US20200163950A1, “PIPERIDINE-DIONE DERIVATIVES FOR USE AS CONTRACEPTIVES” (SPERMATECH AS, priority 2017, published 2020).
# Target: LDHC (Homo sapiens, UniProt P07864)
# Test: Coupled diaphorase assay (LDHC inhibition)
# Type: biochemical
# Conditions: 10 nM LDHC, 500 μM lactate, 150 μM NAD+, 3 μM resazurin, fluorescence readout of resorufin
# Description: The inhibitory properties of the compounds were investigated using a coupled enzyme assay that links the lactate dehydrogenase (LDH) reaction to the production of fluorescent resorufin by diaphorase.
# Human lactate dehydrogenases (LDH) catalyze the reversible interconversion between pyruvate and lactate. LDH is capable of catalyzing both the forward (pyruvate to lactate) and the reverse (lactate to pyruvate) reaction, using either NADH or NAD+ as cofactor. The reaction proceeds in either direction dependent on various factors, such as substrate availability, the presence of necessary cofactors, temperature and pH.
# The coupled assay relies on the […] of NAD+ to NADH throughout the conversion of lactate to pyruvate by LDHC. The produced NADH serves as cofactor in the diaphorase reaction, which reduces non-fluorescent resazurin to fluorescent resorufin. Therefore, the assay indirectly monitors the rate of pyruvate production. Although the consumption or formation of NADH can be directly monitored due to the intrinsic fluorescence of the molecule (excitation: 340 nm, emission: 460 nm) there are problems linked to the direct readout method. It has been shown that many compounds in chemical libraries interfere with the assay due to fluorescent properties similar to NADH. Shifting the assay to longer wavelengths by coupling the LDH reaction to the conversion of resazurin to fluorescent resorufin by diaphorase reduces this compound interference. The assay direction was thus chosen to provide a robust and reliable assay.
# For the determination of IC50 values a coupled diaphorase assay was adopted from Bembenek et al. (A Fluorescence-Based Coupling Reaction for Monitoring the Activity of Recombinant Human NAD Synthetase. ASSAY and Drug Development Technologies, 2005. 3(5): 533-541). Compounds were tested in duplicates using 2-fold, 3-fold or 4-fold serial dilutions including 11 individual concentrations, starting from 5000 μM to 30 μM depending on their activity in initial tests. Positive (without compound in the presence of DMSO) and inhibition controls (oxamate, 28.7 mM final concentration in assay) or no-substrate controls representing 100% inhibition were added. Oxamate is a well characterized inhibitor of LDH that inhibits LDH enzyme activity in the mM range in vitro with high specificity (Papacostantinou et al., J. Biol. Chem. 236: 278-284, 1961). The controls allowed for the calculation of the percentage inhibition for each data point. The assay buffer consisted of 50 mM HEPES pH 7.4, 5 mM MgCl2 and 0.05% pluronic acid F-127. Enzyme solution with final concentrations of 10 nM LDHC, as well as 0.2 U/ml diaphorase was dispensed into 384-well plates (Greiner bio-one) using a CyBi®-SELMA robotic pipettor. Compound dilutions and the enzyme were incubated for at least 15 to 20 min at room temperature. Thereafter, the substrate solution was added (final concentrations: 500 μM lactate, 150 μM NAD^+, 3 μM resazurin). The reaction was quenched by the addition of a stop solution (final concentrations: 20 mM EDTA, 400 mM NaCl, 40 mM pyruvate). Fluorescence was read out after 5 min of incubation at an excitation wavelength of 560 nm and an emission wavelength of 590 nm on a BMG labtech FLUOstar OPTIMA or a Perkin Elmer Victor X plate reader. […]
# Chain of LDHC (P07864 whole entry): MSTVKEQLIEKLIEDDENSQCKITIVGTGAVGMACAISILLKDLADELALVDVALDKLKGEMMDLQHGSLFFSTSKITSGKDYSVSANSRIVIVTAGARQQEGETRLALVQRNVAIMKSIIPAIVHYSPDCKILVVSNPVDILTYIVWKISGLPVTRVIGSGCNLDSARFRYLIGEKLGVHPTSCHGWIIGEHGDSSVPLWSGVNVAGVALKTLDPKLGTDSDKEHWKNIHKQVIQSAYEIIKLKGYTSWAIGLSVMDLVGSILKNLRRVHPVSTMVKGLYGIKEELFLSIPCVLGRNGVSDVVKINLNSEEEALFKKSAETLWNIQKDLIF
row,IC50 [µM],Structure (SMILES)
1,0.5 to 10,"O=C1CC(c2ccsc2)(c2cccc(Cc3cccc(F)c3)n2)NC(=O)C1Sc1ccccc1Cl (stereo not shown) [Example 11, 3-((2-chlorophenyl)thio)-6-(6-(3-fluorobenzyl)pyridin-2-yl)-6-(thiophen-3-yl)piperidine-2,4-dione]"
2,0.5 to 10,"O=C1CC(c2ccc(N3CCOCC3)cc2)(c2ccsc2)NC(=O)C1Sc1cc(Cl)ccc1Cl (racemic) [Example 6, 3-((2,5-dichlorophenyl)thio)-6-(4-morpholinophenyl)-6-(thiophen-3-yl)piperidine-2,4-dione]"
3,0.5 to 10,"O=C1CC(c2ccc(N3CCOCC3)cc2)(c2ccsc2)NC(=O)C1Sc1ccc(F)cc1Cl (stereo not shown) [Example 5, 3-((2-chloro-4-fluorophenyl)thio)-6-(4-morpholinophenyl)-6-(thiophen-3-yl)piperidine-2,4-dione]"
4,10 to 50,"O=C1CC(c2ccc(N3CCOCC3)cc2)(c2ccsc2)NC(=O)C1Sc1cc(Cl)ccc1Cl (single isomer, unassigned) [6 Enantiomer 1]"
5,0.5 to 10,"CC(C)CCOc1cccc(C2(c3ccsc3)CC(=O)C(Sc3ccccc3Cl)C(=O)N2)n1 (stereo not shown) [Example 12, 3-((2-chlorophenyl)thio)-6-(6-(isopentyloxy)pyridin-2-yl)-6-(thiophen-3-yl)piperidine-2,4-dione]"
6,50 to 100,"O=C1CC(c2ccc(N3CCOCC3)cc2)(c2ccsc2)NC(=O)C1Sc1cc(Cl)ccc1Cl (single isomer, unassigned) [6 Enantiomer 2]"
7,0.5 to 10,"O=C1NC(c2ccc(N3CCOCC3)cc2)(c2ccsc2)CC(OC(=O)c2ccncc2)=C1Sc1cc(Cl)ccc1Cl (stereo not shown) [Example 9, 5-((2,5-dichlorophenyl)thio)-2-(4-morpholinophenyl)-6-oxo-2-(thiophen-3-yl)-1,2,3,6-tetrahydropyridin-4-yl isonicotinate]"
8,50 to 100,"O=C1CC(c2ccsc2)(c2cccc(OCC3CCCC3)n2)NC(=O)C1Sc1ccc(Cl)cc1Cl (stereo not shown) [Example 1, 6-[6-(cyclopentylmethoxy)pyridin-2-yl]-3-[(2,4-dichlorophenyl)sulfanyl]-6-(thiophen-3-yl)piperidine-2,4-dione]"
9,50 to 100,"O=C1CC(c2ccsc2)(c2cccc(OCC3CCCC3)n2)NC(=O)C1Sc1cccc(Cl)c1Cl (stereo not shown) [Example 4, 6-[6-(cyclopentylmethoxy)pyridin-2-yl]-3-[(2,3-dichlorophenyl)sulfanyl]-6-(thiophen-3-yl)piperidine-2,4-dione]"
10,0.5 to 10,"O=C1CC(c2ccsc2)(c2cccc(OCC3CCCC3)n2)NC(=O)C1Sc1ccc(F)cc1Cl (stereo not shown) [Example 2, 3-[(2-chloro-4-fluorophenyl)sulfanyl]-6-[6-(cyclopentylmethoxy)pyridin-2-yl]-6-(thiophen-3-yl)piperidine-2,4-dione]"
11,10 to 50,"O=C1CC(c2ccsc2)(c2cccc(OC3COC3)n2)NC(=O)C1Sc1ccccc1Cl (stereo not shown) [Example 10, 3-((2-chlorophenyl)thio)-6-(6-(oxetan-3-yloxy)pyridin-2-yl)-6-(thiophen-3-yl)piperidine-2,4-dione]"
12,0.5 to 10,"O=C1CC(c2ccsc2)(c2cccc(OCC3CCCC3)n2)NC(=O)C1Sc1ccccc1Cl (stereo not shown) [Example 8, 3-((2-chlorophenyl)thio)-6-(6-(cyclopentylmethoxy)pyridin-2-yl)-6-(thiophen-3-yl)piperidine-2,4-dione]"
13,0.5 to 10,"O=C1CC(c2ccc(N3CCOCC3)cc2)(c2ccsc2)NC(=O)C1Sc1ccccc1Cl (single isomer, unassigned) [7 Enantiomer 1]"
14,0.5 to 10,"O=C1CC(c2ccc(N3CCOCC3)cc2)(c2ccsc2)NC(=O)C1Sc1ccccc1Cl (racemic) [Example 7, 3-((2-chlorophenyl)thio)-6-(4-morpholinophenyl)-6-(thiophen-3-yl)piperidine-2,4-dione]"
15,10 to 50,"O=C1CC(c2ccc(N3CCOCC3)cc2)(c2ccsc2)NC(=O)C1Sc1ccccc1Cl (single isomer, unassigned) [7 Enantiomer 2]"
16,0.5 to 10,"O=C1CC(c2ccsc2)(c2cccc(OCC3CCCC3)n2)NC(=O)C1Sc1cc(Cl)ccc1Cl (stereo not shown) [Example 3, 6-[6-(cyclopentylmethoxy)pyridin-2-yl]-3-[(2,5-dichlorophenyl)sulfanyl]-6-(thiophen-3-yl)piperidine-2,4-dione]"
